Laboratory results published in PubChem BioAssay AID1259407 (Chemical Carcinogenesis Research Information System (CCRIS), 2018).
Active and inactive are the calls of the source. No rule for the calls is given here.

Test system: CCRIS mutagenicity, Ames/micronucleus/aberration tests
Assay: CCRIS mutagenicity studies
[1] = Test System: AMES SALMONELLA TYPHIMURIUM, Strain/Indicator: TA100, Metabolic Activation: NONE, Method: STANDARD PLATE
[2] = Test System: AMES SALMONELLA TYPHIMURIUM, Strain/Indicator: TA100, Metabolic Activation: RAT, LIVER, S-9, AROCLOR 1254, Method: STANDARD PLATE
[3] = Test System: AMES SALMONELLA TYPHIMURIUM, Strain/Indicator: TA98, Metabolic Activation: NONE, Method: PREINCUBATION
[4] = Test System: AMES SALMONELLA TYPHIMURIUM, Strain/Indicator: TA98, Metabolic Activation: RAT, LIVER, S-9, PCB, Method: PREINCUBATION
[5] = Test System: AMES SALMONELLA TYPHIMURIUM, Strain/Indicator: TA100, Metabolic Activation: NONE, Method: PREINCUBATION
[6] = Test System: AMES SALMONELLA TYPHIMURIUM, Strain/Indicator: TA100, Metabolic Activation: RAT, LIVER, S-9, PCB, Method: PREINCUBATION
[7] = Test System: AMES SALMONELLA TYPHIMURIUM, Strain/Indicator: TA98, Metabolic Activation: NONE, Method: STANDARD PLATE
[8] = Test System: AMES SALMONELLA TYPHIMURIUM, Strain/Indicator: TA98, Metabolic Activation: RAT, LIVER, S-9, AROCLOR 1254, Method: STANDARD PLATE
[9] = Test System: AMES SALMONELLA TYPHIMURIUM, Strain/Indicator: TA98, Metabolic Activation: NONE
[10] = Test System: AMES SALMONELLA TYPHIMURIUM, Strain/Indicator: TA100, Metabolic Activation: NONE

C[N+]1(CCNP(=S)(NCC[N+]2(C)Cc3c(ccc4c3OCO4)[C@@H]3[C@H]2c2cc4c(cc2C[C@@H]3O)OCO4)NCC[N+]2(C)Cc3c(ccc4c3OCO4)[C@@H]3[C@H]2c2cc4c(cc2C[C@@H]3O)OCO4)Cc2c(ccc3c2OCO3)[C@@H]2[C@H]1c1cc3c(cc1C[C@@H]2O)OCO3 (some centres undefined)
mutagenic call [1]: inactive; negative | mutagenic call [2]: inactive; negative

O=C(/C=C/c1ccccc1O)c1ccc(O)cc1O
mutagenic call (Test System: Ames Salmonella typhimurium, Strain/Indicator: TA102, Metabolic Activation: None, Method: Preincubation): inactive; negative | mutagenic call (Test System: Ames Salmonella typhimurium, Strain/Indicator: TA102, Metabolic Activation: Rat, Liver, S-9, Aroclor 1254 in 0.154 M KCl, Method: Preincubation): inactive; negative

COc1c(CO)c(O)cc2c1C(=O)c1ccccc1C2=O
mutagenic call [3]: inactive; negative | mutagenic call [4]: inactive; negative | mutagenic call [5]: active; positive | mutagenic call [6]: active; positive

Cc1cc2ccccc2c2ccc3c(c12)C=CC(=O)C3=O
mutagenic call (Test System: AMES SALMONELLA TYPHIMURIUM, Strain/Indicator: TA97A, Metabolic Activation: NONE, Method: PREINCUBATION): active; positive | mutagenic call [3]: inactive; negative | mutagenic call [5]: active; positive | mutagenic call (Test System: AMES SALMONELLA TYPHIMURIUM, Strain/Indicator: TA102, Metabolic Activation: NONE, Method: PREINCUBATION): inactive; negative | mutagenic call (Test System: AMES SALMONELLA TYPHIMURIUM, Strain/Indicator: TA104, Metabolic Activation: NONE, Method: PREINCUBATION): inactive; negative

O=[N+]([O-])c1cc2c(cc3ccc4cccc5ccc2c3c45)o1
mutagenic call (Test System: AMES SALMONELLA TYPHIMURIUM, Strain/Indicator: TA98(NR), Metabolic Activation: NONE, Method: STANDARD PLATE): active; positive | mutagenic call (Test System: AMES SALMONELLA TYPHIMURIUM, Strain/Indicator: TA98(NR), Metabolic Activation: RAT, LIVER, S-9, AROCLOR 1254, Method: STANDARD PLATE): active; positive | mutagenic call [7]: active; positive | mutagenic call [8]: active; positive

C[C@H](CCC(=O)O)[C@H]1CC[C@H]2[C@@H]3CC[C@@H]4C[C@@H](O)CC[C@]4(C)[C@H]3C[C@H](O)[C@]12C
mutagenic call (Test System: AMES SALMONELLA TYPHIMURIUM, Strain/Indicator: TA98, Metabolic Activation: NONE, Method: FLUCTUATION TEST): inactive; negative | mutagenic call [3]: inactive; negative | mutagenic call [4]: inactive; negative | mutagenic call (Test System: AMES SALMONELLA TYPHIMURIUM, Strain/Indicator: TA100, Metabolic Activation: NONE, Method: FLUCTUATION TEST): inactive; negative

O=C1c2ccccc2C([N+](=O)[O-])c2ccccc21
mutagenic call [7]: inactive; negative | mutagenic call [8]: inactive; negative | mutagenic call [1]: inactive; negative | mutagenic call [2]: inactive; negative

Oc1cc(Cl)c(Cl)cc1Cl
mutagenic call (Test System: AMES SALMONELLA TYPHIMURIUM, Strain/Indicator: TA97, Metabolic Activation: NONE, Method: STANDARD PLATE): active; positive | mutagenic call (Test System: AMES SALMONELLA TYPHIMURIUM, Strain/Indicator: TA97, Metabolic Activation: RAT, LIVER, S-9, AROCLOR 1254, Method: STANDARD PLATE): active; positive | mutagenic call [9]: inactive; negative | mutagenic call [7]: active; positive | mutagenic call (Test System: AMES SALMONELLA TYPHIMURIUM, Strain/Indicator: TA98, Metabolic Activation: RAT, LIVER, S-9, AROCLOR 1254): inactive; negative | mutagenic call [8]: active; positive | mutagenic call [10]: inactive; negative | mutagenic call [1]: active; positive | mutagenic call (Test System: AMES SALMONELLA TYPHIMURIUM, Strain/Indicator: TA100, Metabolic Activation: RAT, LIVER, S-9, AROCLOR 1254): inactive; negative | mutagenic call [2]: inactive; negative | mutagenic call (Test System: AMES SALMONELLA TYPHIMURIUM, Strain/Indicator: TA102, Metabolic Activation: NONE): inactive; negative | mutagenic call (Test System: AMES SALMONELLA TYPHIMURIUM, Strain/Indicator: TA102, Metabolic Activation: RAT, LIVER, S-9, AROCLOR 1254): inactive; negative | mutagenic call (Test System: AMES SALMONELLA TYPHIMURIUM, Strain/Indicator: TA104, Metabolic Activation: NONE): inactive; negative | mutagenic call (Test System: AMES SALMONELLA TYPHIMURIUM, Strain/Indicator: TA104, Metabolic Activation: NONE, Method: STANDARD PLATE): inactive; negative | mutagenic call (Test System: AMES SALMONELLA TYPHIMURIUM, Strain/Indicator: TA104, Metabolic Activation: RAT, LIVER, S-9, AROCLOR 1254): inactive; negative | mutagenic call (Test System: AMES SALMONELLA TYPHIMURIUM, Strain/Indicator: TA104, Metabolic Activation: RAT, LIVER, S-9, AROCLOR 1254, Method: STANDARD PLATE): inactive; negative | mutagenic call (Test System: CHINESE HAMSTER V-79, Strain/Indicator: V-79/6-THIOGUANINE, Metabolic Activation: NONE, Method: STANDARD PLATE): inactive; negative

CC(=O)Nc1ccc(Sc2ccccc2)cc1
mutagenic call [7]: inactive; negative | mutagenic call [8]: active; positive

CC(=O)c1ccc2c(c1)C(=O)C1(CC1)O2
mutagenic call [9]: inactive; negative | mutagenic call (Test System: AMES SALMONELLA TYPHIMURIUM, Strain/Indicator: TA98, Metabolic Activation: S-9): inactive; negative | mutagenic call [10]: inactive; negative | mutagenic call (Test System: AMES SALMONELLA TYPHIMURIUM, Strain/Indicator: TA100, Metabolic Activation: S-9): inactive; negative | mutagenic call (Test System: AMES SALMONELLA TYPHIMURIUM, Strain/Indicator: TA1535, Metabolic Activation: NONE): inactive; negative | mutagenic call (Test System: AMES SALMONELLA TYPHIMURIUM, Strain/Indicator: TA1535, Metabolic Activation: S-9): inactive; negative | mutagenic call (Test System: AMES SALMONELLA TYPHIMURIUM, Strain/Indicator: TA1537, Metabolic Activation: NONE): inactive; negative | mutagenic call (Test System: AMES SALMONELLA TYPHIMURIUM, Strain/Indicator: TA1537, Metabolic Activation: S-9): inactive; negative | mutagenic call (Test System: E. COLI, Strain/Indicator: WP2 (HCR), Metabolic Activation: NONE): inactive; negative | mutagenic call (Test System: E. COLI, Strain/Indicator: WP2 (HCR), Metabolic Activation: S-9): inactive; negative

C[C@H]1CC[C@@H]2[C@@H](C)[C@H]3[C@H](C[C@H]4[C@@H]5CC=C6C[C@@H](O[C@@H]7O[C@H](CO)[C@@H](O[C@@H]8O[C@@H](C)[C@H](O)[C@@H](O)[C@H]8O)[C@H](O)[C@H]7O[C@@H]7O[C@@H](C)[C@H](O)[C@@H](O)[C@H]7O)CC[C@]6(C)[C@H]5CC[C@]34C)N2C1
mutagenic call [7]: inactive; negative | mutagenic call (Test System: AMES SALMONELLA TYPHIMURIUM, Strain/Indicator: TA98, Metabolic Activation: S-9, Method: STANDARD PLATE): inactive; negative | mutagenic call [1]: inactive; negative | mutagenic call (Test System: AMES SALMONELLA TYPHIMURIUM, Strain/Indicator: TA100, Metabolic Activation: S-9, Method: STANDARD PLATE): inactive; negative

O=C(O)c1cc2c(c3c1c([N+](=O)[O-])cc1c(O)cccc13)OCO2
mutagenic call [1]: active; positive | mutagenic call [2]: inactive; negative | mutagenic call (Test System: AMES SALMONELLA TYPHIMURIUM, Strain/Indicator: TA1537, Metabolic Activation: NONE, Method: STANDARD PLATE): active; positive | mutagenic call (Test System: AMES SALMONELLA TYPHIMURIUM, Strain/Indicator: TA1537, Metabolic Activation: RAT, LIVER, S-9, AROCLOR 1254, Method: STANDARD PLATE): inactive; negative

C[C@@H](CN=[N+]=[N-])c1ccccc1
mutagenic call [5]: inactive; negative | mutagenic call [6]: active; positive
